Test results published in the supplement of paper PMC10307832.

What was measured:
Assay in all cases: relative viability (nuclei count vs DMSO), 5 days (fraction); higher = more cells survive
201T = system: 201T
Summary of the method: (§1)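 Relative viability divides the nuclei count in treated wells by that in vehicle wells. Lung cancer cell lines were seeded in 1536-well plates, dosed by pin tool the next day, and fixed and stained after 5 days in one step with final 0.05% Triton X-100, 1% formaldehyde and 1 ug/ml Hoechst. Dosing was a single drug or a fixed anchor-drug dose plus five library-drug doses (not always all listed) in √10 steps, and values are medians of duplicate plates imaged at 4×.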

ABC-1 = system: ABC-1
Summary of the method: as §1

BEN = system: BEN
Summary of the method: as §1

CAL-12T = system: CAL-12T
Summary of the method: as §1

COR-L 105 = system: COR-L 105
Summary of the method: as §1

EKVX = system: EKVX
Summary of the method: as §1

HARA = system: HARA
Summary of the method: as §1

HCC-366 = system: HCC-366
Summary of the method: as §1

LK-2 = system: LK-2
Summary of the method: as §1

LOU-NH91 = system: LOU-NH91
Summary of the method: as §1

NCI-H1437 = system: NCI-H1437
Summary of the method: as §1

NCI-H1650 = system: NCI-H1650
Summary of the method: as §1

NCI-H1666 = system: NCI-H1666
Summary of the method: as §1

NCI-H2009 = system: NCI-H2009
Summary of the method: as §1

NCI-H2170 = system: NCI-H2170
Summary of the method: as §1

NCI-H3122 = system: NCI-H3122
Summary of the method: as §1

NCI-H441 = system: NCI-H441
Summary of the method: as §1

NCI-H460 = system: NCI-H460
Summary of the method: as §1

NCI-H661 = system: NCI-H661
Summary of the method: as §1

NCI-H727 = system: NCI-H727
Summary of the method: as §1

PC-14 = system: PC-14
Summary of the method: as §1

SW 900 = system: SW 900
Summary of the method: as §1

With `CCN(CC)CCCCNc1ncc2cc(-c3cc(OC)cc(OC)c3)c(NC(=O)NC(C)(C)C)nc2n1` + CC(=O)c1c(C)c2cnc(Nc3ccc(N4CCNCC4)cn3)nc2n(C2CCCC2)c1=O [Palbociclib] (partner 0.5 µM) as the molecule, how does the relative viability (201T; first compound 0.01 µM) read?
Its relative viability is 0.395.

What about the relative viability (201T; first compound 0.03162 µM) of the same molecule?
The relative viability was 0.387.

And the relative viability (201T; first compound 0.1 µM)?
Its relative viability is 0.406.

What about the relative viability (201T; first compound 0.3162 µM) of the same molecule?
The relative viability was 0.389.

And the relative viability (201T; first compound 1 µM)?
The relative viability was 0.372.

What about the relative viability (ABC-1; first compound 0.03162 µM) of the same molecule?
The relative viability was 0.968.

And the relative viability (ABC-1; first compound 0.1 µM)?
Its relative viability is 0.724.

What about the relative viability (ABC-1; first compound 0.3162 µM) of the same molecule?
The relative viability was 0.832.

And the relative viability (ABC-1; first compound 1 µM)?
The relative viability was 0.574.

What about the relative viability (BEN; first compound 0.01 µM) of the same molecule?
Its relative viability is 0.489.

What about the relative viability (BEN; first compound 0.03162 µM) of the same molecule?
Its relative viability is 0.417.

What about the relative viability (BEN; first compound 0.1 µM) of the same molecule?
The relative viability was 0.493.

And the relative viability (BEN; first compound 0.3162 µM)?
The relative viability was 0.524.

What about the relative viability (BEN; first compound 1 µM) of the same molecule?
The relative viability was 0.475.

What about the relative viability (CAL-12T; first compound 0.01 µM) of the same molecule?
The relative viability was 0.411.

What about the relative viability (CAL-12T; first compound 0.03162 µM) of the same molecule?
The relative viability was 0.456.

What about the relative viability (CAL-12T; first compound 0.1 µM) of the same molecule?
The relative viability was 0.518.

And the relative viability (CAL-12T; first compound 0.3162 µM)?
Its relative viability is 0.419.

What about the relative viability (CAL-12T; first compound 1 µM) of the same molecule?
The relative viability was 0.408.

And the relative viability (COR-L 105; first compound 0.01 µM)?
The relative viability was 0.398.

What about the relative viability (COR-L 105; first compound 0.03162 µM) of the same molecule?
Its relative viability is 0.393.

What about the relative viability (COR-L 105; first compound 0.1 µM) of the same molecule?
Its relative viability is 0.427.

And the relative viability (COR-L 105; first compound 0.3162 µM)?
Its relative viability is 0.423.

And the relative viability (COR-L 105; first compound 1 µM)?
Its relative viability is 0.405.

What about the relative viability (EKVX; first compound 0.03162 µM) of the same molecule?
The relative viability was 0.406.

What about the relative viability (EKVX; first compound 0.1 µM) of the same molecule?
Its relative viability is 0.31.

And the relative viability (EKVX; first compound 0.3162 µM)?
The relative viability was 0.817.

And the relative viability (EKVX; first compound 1 µM)?
The relative viability was 0.413.

What about the relative viability (HARA; first compound 0.01 µM) of the same molecule?
Its relative viability is 0.228.

And the relative viability (HARA; first compound 0.03162 µM)?
The relative viability was 0.243.

What about the relative viability (HARA; first compound 0.1 µM) of the same molecule?
The relative viability was 0.306.

What about the relative viability (HARA; first compound 0.3162 µM) of the same molecule?
The relative viability was 0.223.

And the relative viability (HARA; first compound 1 µM)?
The relative viability was 0.269.

What about the relative viability (HCC-366; first compound 0.01 µM) of the same molecule?
Its relative viability is 0.364.

What about the relative viability (HCC-366; first compound 0.03162 µM) of the same molecule?
The relative viability was 0.406.

And the relative viability (HCC-366; first compound 0.1 µM)?
Its relative viability is 0.504.

And the relative viability (HCC-366; first compound 0.3162 µM)?
The relative viability was 0.438.

What about the relative viability (HCC-366; first compound 1 µM) of the same molecule?
The relative viability was 0.441.

What about the relative viability (LK-2; first compound 0.01 µM) of the same molecule?
Its relative viability is 0.65.

And the relative viability (LK-2; first compound 0.03162 µM)?
Its relative viability is 0.66.

And the relative viability (LK-2; first compound 0.1 µM)?
The relative viability was 0.637.

What about the relative viability (LK-2; first compound 0.3162 µM) of the same molecule?
The relative viability was 0.502.

And the relative viability (LK-2; first compound 1 µM)?
The relative viability was 0.156.

And the relative viability (LOU-NH91; first compound 0.01 µM)?
Its relative viability is 0.572.

And the relative viability (LOU-NH91; first compound 0.03162 µM)?
The relative viability was 0.546.

And the relative viability (LOU-NH91; first compound 0.1 µM)?
Its relative viability is 0.557.

And the relative viability (LOU-NH91; first compound 0.3162 µM)?
The relative viability was 0.491.

What about the relative viability (LOU-NH91; first compound 1 µM) of the same molecule?
Its relative viability is 0.412.

And the relative viability (NCI-H1437; first compound 0.01 µM)?
The relative viability was 0.319.

And the relative viability (NCI-H1437; first compound 0.03162 µM)?
The relative viability was 0.331.

And the relative viability (NCI-H1437; first compound 0.1 µM)?
The relative viability was 0.326.

What about the relative viability (NCI-H1437; first compound 0.3162 µM) of the same molecule?
The relative viability was 0.303.

And the relative viability (NCI-H1437; first compound 1 µM)?
The relative viability was 0.285.

What about the relative viability (NCI-H1650; first compound 0.01 µM) of the same molecule?
The relative viability was 0.311.

And the relative viability (NCI-H1650; first compound 0.03162 µM)?
Its relative viability is 0.338.

What about the relative viability (NCI-H1650; first compound 0.1 µM) of the same molecule?
Its relative viability is 0.354.

What about the relative viability (NCI-H1650; first compound 0.3162 µM) of the same molecule?
The relative viability was 0.308.

And the relative viability (NCI-H1650; first compound 1 µM)?
The relative viability was 0.296.

What about the relative viability (NCI-H1666; first compound 0.01 µM) of the same molecule?
Its relative viability is 0.666.

What about the relative viability (NCI-H1666; first compound 0.03162 µM) of the same molecule?
The relative viability was 0.626.

And the relative viability (NCI-H1666; first compound 0.1 µM)?
The relative viability was 0.613.

And the relative viability (NCI-H1666; first compound 0.3162 µM)?
Its relative viability is 0.649.

What about the relative viability (NCI-H1666; first compound 1 µM) of the same molecule?
Its relative viability is 0.613.

What about the relative viability (NCI-H2009; first compound 0.01 µM) of the same molecule?
Its relative viability is 0.211.

What about the relative viability (NCI-H2009; first compound 0.03162 µM) of the same molecule?
Its relative viability is 0.22.

And the relative viability (NCI-H2009; first compound 0.1 µM)?
Its relative viability is 0.234.

And the relative viability (NCI-H2009; first compound 0.3162 µM)?
Its relative viability is 0.196.

And the relative viability (NCI-H2009; first compound 1 µM)?
Its relative viability is 0.161.

And the relative viability (NCI-H2170; first compound 0.01 µM)?
Its relative viability is 0.38.

What about the relative viability (NCI-H2170; first compound 0.03162 µM) of the same molecule?
The relative viability was 0.37.

What about the relative viability (NCI-H2170; first compound 0.1 µM) of the same molecule?
Its relative viability is 0.429.

And the relative viability (NCI-H2170; first compound 0.3162 µM)?
The relative viability was 0.409.

What about the relative viability (NCI-H2170; first compound 1 µM) of the same molecule?
The relative viability was 0.385.

And the relative viability (NCI-H3122; first compound 0.01 µM)?
Its relative viability is 0.184.

What about the relative viability (NCI-H3122; first compound 0.03162 µM) of the same molecule?
The relative viability was 0.175.

What about the relative viability (NCI-H3122; first compound 0.1 µM) of the same molecule?
Its relative viability is 0.157.

And the relative viability (NCI-H3122; first compound 0.3162 µM)?
The relative viability was 0.194.

And the relative viability (NCI-H3122; first compound 1 µM)?
The relative viability was 0.179.

And the relative viability (NCI-H441; first compound 0.01 µM)?
Its relative viability is 0.193.

What about the relative viability (NCI-H441; first compound 0.03162 µM) of the same molecule?
The relative viability was 0.204.

And the relative viability (NCI-H441; first compound 0.1 µM)?
Its relative viability is 0.198.

What about the relative viability (NCI-H441; first compound 0.3162 µM) of the same molecule?
Its relative viability is 0.261.

What about the relative viability (NCI-H441; first compound 1 µM) of the same molecule?
Its relative viability is 0.193.

What about the relative viability (NCI-H460; first compound 0.01 µM) of the same molecule?
Its relative viability is 0.147.

And the relative viability (NCI-H460; first compound 0.03162 µM)?
Its relative viability is 0.222.

What about the relative viability (NCI-H460; first compound 0.1 µM) of the same molecule?
Its relative viability is 0.112.

And the relative viability (NCI-H460; first compound 0.3162 µM)?
Its relative viability is 0.165.

What about the relative viability (NCI-H460; first compound 1 µM) of the same molecule?
The relative viability was 0.147.

And the relative viability (NCI-H661; first compound 0.01 µM)?
The relative viability was 0.394.

What about the relative viability (NCI-H661; first compound 0.03162 µM) of the same molecule?
The relative viability was 0.41.

What about the relative viability (NCI-H661; first compound 0.1 µM) of the same molecule?
Its relative viability is 0.418.

What about the relative viability (NCI-H661; first compound 0.3162 µM) of the same molecule?
Its relative viability is 0.444.

What about the relative viability (NCI-H661; first compound 1 µM) of the same molecule?
Its relative viability is 0.38.

What about the relative viability (NCI-H727; first compound 0.01 µM) of the same molecule?
Its relative viability is 0.581.

And the relative viability (NCI-H727; first compound 0.03162 µM)?
Its relative viability is 0.635.

And the relative viability (NCI-H727; first compound 0.1 µM)?
Its relative viability is 0.769.

What about the relative viability (NCI-H727; first compound 0.3162 µM) of the same molecule?
The relative viability was 0.697.

What about the relative viability (NCI-H727; first compound 1 µM) of the same molecule?
The relative viability was 0.59.

And the relative viability (PC-14; first compound 0.01 µM)?
Its relative viability is 0.599.

And the relative viability (PC-14; first compound 0.03162 µM)?
Its relative viability is 0.467.

And the relative viability (PC-14; first compound 0.1 µM)?
Its relative viability is 0.654.

What about the relative viability (PC-14; first compound 0.3162 µM) of the same molecule?
Its relative viability is 0.564.

And the relative viability (PC-14; first compound 1 µM)?
Its relative viability is 0.56.

And the relative viability (SW 900; first compound 0.01 µM)?
The relative viability was 0.653.

What about the relative viability (SW 900; first compound 0.03162 µM) of the same molecule?
Its relative viability is 0.535.

And the relative viability (SW 900; first compound 0.1 µM)?
Its relative viability is 0.602.

And the relative viability (SW 900; first compound 0.3162 µM)?
Its relative viability is 0.517.

What about the relative viability (SW 900; first compound 1 µM) of the same molecule?
Its relative viability is 0.483.
